The values below come from US9815849B2, “Compositions and methods for treating leukemia” (Dana-Farber Cancer Institute, Inc., priority 2010, dated 2017).

The nature of data set [1]: Pharmacokinetic study of (+)-JQ1 in mice (plasma, LCMS-MS). The data set is classed as in vivo. The procedure:
FIG. 29A includes a table of pharmacokinetic data and measured parameters. […] Data represent mean measurements and error bars indicate the standard deviation, both from triplicate independent measurements. Plasma concentrations of drug above the biologically active concentration observed in vitro (100 nM; horizontal red line) are observed for more than 10 hours by extrapolation.

For data set [2], the system named is MLL-AF9/Nras^G12D leukemia. Kind of data set: MLL-AF9/NrasG12D leukemia transplant model, JQ1 treatment. The format is in vivo, mice. From the text: FIG. 12A includes bioluminescent images of mice administered doxycycline upon disease onset, i.e., six days post-transplant. Day zero is the first day of doxycycline administration. FIG. 12B includes a graph showing the quantification of bioluminescent imaging responses following doxycycline administration. Shown are mean values of four replicate mice. FIG. 12C includes a graph showing Kaplan-Meier survival curves of recipient mice transplanted with the indicated TRMPV-shRNA leukemia cell line. The period of doxycycline administration is indicated by an arrow. Statistical significance relative to shRNAs that target Renilla luciferase (shRen) was calculated using a Log-rank test; *p=0.0001, **p<0.0001. FIG. 12D includes flow cytometry of donor-derived (CD45.2-positive) bone marrow cells in terminally diseased doxycycline-administered mice. Gate shown includes dsRed-positive/shRNA-positive cells. FIG. 12E includes a graph showing the quantification of dsRed-positive/shRNA-positive percentage in CD45.2-positive terminal leukemia burden. […] Shown are mean values of 6 DMSO- and 7 JQ1-treated mice. p-values were calculated using a two-tailed Student's paired t-test. […] Statistical significance was calculated using a Log-rank test. […] Shown are mean values of 6 DMSO- and 7 JQ1-treated mice. p-values were calculated using a two-tailed Student's paired t-test. […]
Mice were transplanted with 1 million leukemia cells, followed by treatment initiation on day 4 (when disease becomes visible by imaging). FIG. 13B includes a graph showing quantitation of the bioluminescent images. […] Statistical significance was calculated using a Log-rank test. […] Statistical significance was calculated using a Log-rank test.
For whole body bioluminescent imaging mice were intraperitoneally injected with 50 mg/kg D-Luciferin (Goldbio, St. Louis, Mo.), and after 10 min. analyzed using an IVIS® Spectrum system (Caliper LifeSciences, Waltham, Mass.). Quantification was performed using Living Image software (Caliper LifeSciences) and standardized rectangular region of interests covering the mouse trunk and extremities. […]

The subject of a further data set is Hoxa7, Hoxa9, Meis1. Put plainly: RT-qPCR of direct MLL-AF9 target genes. The format is cell-based, mouse. Conditions: JQ1 treatment of leukemia cells. From the text:
FIGS. 30A-30C show the broadly overlapping transcriptional effects elicited upon suppressing Brd4, Myb, and MLL-AF9 with downregulation of Myc upon suppressing any of the three factors. FIG. 30A includes GSEA plots evaluating transcriptional signatures downstream of MLL-AF9 and Myb. […] The 500 gene cutoff corresponds to a Log2 fold-change of −1.17 for Myb and −1.77 for MLL-AF9. FIG. 30B includes a heat map representation of Myc expression in the indicated microarray replicates. Log2 fold-change and adj.P.Val were calculated using Limma algorithm, implemented using Bioconductor. FIG. 30C includes a graph showing RT-qPCR results. […] Error bars represent s.e.m.
(§1) RNA was prepared using Trizol® reagent (Invitrogen, Carlsbad, Calif.). cDNA synthesis was performed using gScript™ cDNA SuperMix (Quanta Biosciences, Gaithersburg, Md., #101414-106). Quantitative PCR (qPCR) analysis was performed on an ABI™ 7900HT with Sybr green (ABI, Carlsbad, Calif., #4364344). All signals were quantified using the delta-Ct method. All signals were normalized to the levels of GAPDH.
Background: In qPCR the cycle at which signal appears reflects the starting amount.

A short description of data set [3]: Tolerability and normal hematopoiesis in healthy mice after 20 days of JQ1. The format is in vivo, C57BL/6 mice. An excerpt:
Peripheral blood was collected by submandibular bleeding and analyzed using a Hemavet 950 analyzer (Drew Scientific). Values represent average values of 3 replicate mice; error bars indicate s.e.m.
Representative images are shown.
FIG. 17B includes graphs showing the percentage of total bone marrow cells staining for the indicated antibodies. (n=3). Error bars indicate s.e.m.
Paraffin embedded sections were stained with hematoxylin & eosin (H&E). Photographs were taken on a Nikon Eclipse 80i microscope with a Nikon Digital Sight camera using NIS-Elements F2.30 software at a resolution of 2560×1920. Using Adobe Photoshop CS2, images were re-sized and set at a resolution of 300 pixels/inch, autocontrast was applied, and unsharp mask was used to improve image clarity.

Data set [4] concerns Myc. Kind of data set: Myc RT-qPCR and Western blot in leukemia cells. The format is cell-based, mouse. As for the experimental part: FIG. 20D includes a graph showing RT-qPCR results. […] FIG. 20E includes a graph showing ChIP-qPCR results. […] TSS=transcription start site. […] (n=3). […] Representative images taken at 40× objective are shown. All error bars shown represent s.e.m.
For Brd4 Western blots, 30 μg of whole cell lysate RIPA extract (25 mM Tris pH7.6, 150 mM NaCl, 1% NP-40, 1% Sodium deoxycholate, 0.1% SDS) was loaded into each lane. For Myc Western blots, cells were lysed directly in Laemmli buffer. About 50,000 cell equivalents were loaded in each lane. Protein extracts were resolved by SDS-PAGE electrophoresis and transferred to nitrocellulose for blotting.
as §1

The test system of data set [5] is non-AML leukemia and solid tumor cell lines. Kind of data set: Proliferation assay of non-AML leukemia and solid tumor cell lines. The data set is classed as cell-based, human. Conditions: other tested non-AML leukemia and solid tumor cell lines.
Method: (§2) Proliferation assays were performed by counting the increase in viable cell number over seventy-two hours. Dead cells were excluded by incubating with propidium iodide (PI). Cell concentration measurements were performed on a Guava Easycyte (Millipore, Billerica, Mass.), gating only viable cells using forward/side scatter/PI-cells. Proliferation rate was calculated using the equation: ln(cell concentration72 h/cell concentration0 h)/72. Relative proliferation rate was calculated by normalizing to rate of DMSO-treated cells.
For the next data set, the target named is Brd4 (Mus musculus, UniProt Q9ESU6). Conditions: MLL-AF9/Nras^G12D leukemia cells.
Data set [6] concerns Myc. Put plainly: Myc levels in MEF or G1E cells. The data set is classed as cell-based, mouse. The procedure: as §1
For data set [7], the system named is MLL-AF9/Nras^G12D leukemia cells. Put plainly: May-Grunwald/Giemsa cytospin morphology of leukemia cells. The data set is classed as cell-based, mouse. The conditions noted are these: 100 nM JQ1, 2 days. The procedure: 50,000 cells were resuspend in 100 μl FACS buffer (5% FBS, 0.05% NaN3 in PBS) cytospun onto glass slides using Shandon Cytospin 2 Centrifuge at 500 rpm for 5 min. May-Grunwald (Sigma-Aldrich, #019K4368) and Giemsa (Sigma-Aldrich, #010M4338) stainings were performed according to manufacturer's protocols. Images were collected using a Zeiss Observer Microscope with a 40× objective.

For another data set, the system named is primary AMLs. Kind of data set: cells. The conditions noted are these: Homo sapiens, read-out: IC50, growth-suppressive activity.
The next data set concerns AML lines. Kind of data set: BrdU cell cycle analysis and apoptosis measurement in AML lines. The conditions noted are these: all tested AML lines. The data set is classed as cell-based. The procedure:
BrdU incorporation assays were performed according to the manufacturer's protocol (BD, APC BrdU Flow Kit, #552598), where cells were pulsed with BrdU for 30 min. Cells were co-stained with 7-AAD or DAPI for DNA content measurement. For all conditional shRNA experiments, the analysis was gated on shRNA+/dsRed+ cell populations. Annexin V staining for apoptosis was performed according to manufacturer's protocol (BD Biosciences, APC Annexin V, #550475). In FIG. 4e, Annexin V gating was performed on live cells (FSC/SCC) and dsRed+/shRNA+ population, to ensure a clear readout of shRNA effects. […] All analyses were performed using Flowjo software.

The subject of data set [8] is mouse MLL-fusion leukemia cells. Kind of data set: Proliferation assay of mouse leukemia cells versus fibroblasts and G1E. The format is cell-based. Conditions: as compared to fibroblasts and G1E.
Method: as §2
The subject of data set [9] is primary MLL-rearranged pediatric leukemias. Kind of data set: Pediatric primary leukemia sample analysis (WST-1, 72 h). The format is cell-based, human. Conditions: 3/3 tested primary MLL-rearranged pediatric leukemias. From the text: Diagnostic bone marrow samples were collected under institutional review board-approved protocols from newly diagnosed children with acute leukemia. Informed consent was obtained in accordance with the Helsinki protocol. At the time of collection, primary leukemic cells were enriched by density centrifugation using Ficoll-Paque PLUS (GE Healthcare, Piscataway, N.J.) and subsequently stored in liquid nitrogen. Vials of cryopreserved cells were thawed, resuspended in media, and live leukemic cells were enriched by density centrifugation. Cells were maintained in supplemented media with 20% fetal bovine serum. All leukemia cell cultures were incubated at 37° C. in 5% CO2.
WST-1 assays were performed in triplicate.

For data set [10], the system named is AML1-ETO9a/Nras^G12D/p53^−/− AML. Kind of data set: AML1-ETO9a/NrasG12D/p53-/- AML mouse model, JQ1 treatment. The data set is classed as in vivo, mice. The conditions noted are these: 50 mg/kg/d, treatment started after disease onset. From the text: FIG. 14A is a schematic showing the experimental strategy. p53^−/− HSPCs were cotransduced with AML1-ETO9a and Luciferase-IRES-NrasG12D constructs, followed by transplantation of cells into a sublethally irradiated recipient mouse. With high-penetrance, mice succumb to AML as has been described previously (Dick, J. E., Blood 2008; 112:4793-807). Splenic leukemia material derived from moribund mice was transplanted into secondary recipient animals. […] FIG. 14B includes bioluminescent images of leukemic mice at indicated timepoints. […] Shown are mean values of 8 mice in each treatment group, error bars represent s.e.m, p-values were calculated using a two-tailed Student's paired t-test.

For the next data set, the system named is AML cell lines. Kind of data set: cells. Conditions: Homo sapiens, 72 h, read-out: IC50, growth-suppressive activity (proliferation rate).
[11] abbreviates: daily injections of JQ1 50 mg/kg vs vehicle.

Structures are written as SMILES. “Also recorded” adds a separate entry of the source.

Method for AML cell lines: as §2
Method for Brd4: ChIP assays were performed exactly as described (Filippakopoulos et al.). […] All results were quantified by qPCR performed using SYBR green (ABI) on an ABI 7900HT. Each IP signal was referenced to an input standard curve dilution series (IP/Input) to normalize for differences in starting cell number and for primer amplification efficiency.
Method for primary AMLs: Primary leukemic cells were obtained from peripheral blood (PB) or bone marrow (BM) aspirate samples of 12 (untreated) patients with AML at diagnosis (n=10) or at relapse (n=2). […] Mononuclear cells (MNC) were prepared using Ficoll and stored in liquid nitrogen until used. […] HL60 and MOLM13 cell lines were included as controls (German Collection of Microorganisms and Cell Cultures, DSMZ, Braunschweig, Germany).
Filters were air-dried, and the bound radioactivity was measured in a β-counter (Top-Count NXT, Packard Bioscience). All experiments were performed in triplicates.

Turning to `Cc1sc2c(c1C)C(c1ccc(Cl)cc1)=NC(CC(=O)OC(C)(C)C)c1nnc(C)n1-2` (racemic) [JQ1, tert-Butyl 2-(4-(4-chlorophenyl)-2,3,9-trimethyl-6H-thieno[3,2-f][1,2,4]triazolo[4,3-a][1,4]diazepin-6-yl)acetate], the half-life result in data set [1] (in rodents) was “about one”. Also, the “disease progression (bioluminescent imaging)” value in data set [2] (setting [11]) is listed as “marked delay in disease progression”. In addition, the survival entry in data set [2] (setting [11]) is reported as “significantly extended survival”. Also, the “activity in established disease” value is “single-agent activity in the setting of established disease” in data set [2] (established MLL-AF9/NrasG12D leukemia, 50 or 100 mg/kg/d) and “single-agent anti-leukemia activity” in data set [10]. In addition, the “expression of Hoxa7, Hoxa9, or Meis1” value in the data set with Hoxa7, Hoxa9, Meis1 is “does not influence expression”. The “impact on normal hematopoiesis” value in [3] (50 or 100 mg/kg/d intraperitoneal for 20 days) is recorded as “little if any impact on normal hematopoiesis; also recorded: minimal impact on normal hematopoiesis”. In [3] (daily intraperitoneal 50 mg/kg or 100 mg/kg for 20 days), the “H&E histopathology of sternal bone marrow” value was “normal cellularity and normal mixed hematopoiesis”. Further, the tolerability result in data set [3] (mice) is on record as “well-tolerated”. Also, the “time to downregulation of Myc mRNA levels” value with Myc [4] (250 nM JQ1, MLL-AF9/Nras^G12D leukemia cells) is at most 60 min. Further, the “Myc mRNA and protein levels” value in the data set with Myc [4] (mouse MLL-AF9/Nras^G12D leukemia cells) is “dramatic reduction in Myc mRNA levels and Myc protein levels”. For the same molecule, in data set [5], the “sensitivity to the compound” value is “minimal sensitivity”. Also, on Brd4, the “focal Brd4 occupancy ~2 kilobases upstream of the Myc promoter” value is “eliminated”. Moreover, the “effect on Myc levels” value with Myc [6] is “minimal effects”. Further, the “cell morphology (differentiation)” value in data set [7] was “macrophage-like appearance”. Moreover, the IC50 in the data set on primary AMLs and in the data set on AML cell lines was below 500 nM throughout. Besides, the “cell-cycle arrest and apoptosis” value in the data set with AML lines was “universally triggered cell-cycle arrest and apoptosis”. The proliferation sensitivity result in data set [8] was “strikingly sensitive to sub-micromolar JQ1 concentrations”. Moreover, the “sensitivity to JQ1” value in data set [9] is “highly sensitive”.
As for `Cc1sc2c(c1C)C(c1ccc(Cl)cc1)=N[C@@H](CC(=O)OC(C)(C)C)c1nnc(C)n1-2` [(+)-JQ1, (S)-tert-Butyl 2-(4-(4-chlorophenyl)-2,3,9-trimethyl-6H-thieno[3,2-f][1,2,4]triazolo[4,3-a][1,4]diazepin-6-yl)acetate], in data set [1] (50 mg/kg intraperitoneal, by extrapolation), the “time with plasma concentration above the biologically active concentration observed in vitro (100 nM)” value is “more than 10 hours”. The Cmax in [1] (mouse, plasma, ip, single intraperitoneal injection 50 mg/kg, adult C1 male mice, read-out: peak plasma concentration (Cmax)) is above 20 µM. Moreover, the AUC in [1] (mouse, plasma, ip, single intraperitoneal injection 50 mg/kg, adult C1 male mice, read-out: total drug exposure (AUC)) was above 20000 ng·h/mL.

In general, AUC refers to concentration integrated over time.
